Measured values: patent US20250304560A1, “MODULATORS OF NLRP3 INFLAMMASOME AND RELATED PRODUCTS AND METHODS” (Neumora Therapeutics, Inc., priority 2022, published 2025)
Where two headings read alike, the source gives them in different places.

Assays:
hERG channels = target: T1, hERG channels (Homo sapiens, UniProt Q12809); experiment: hERG assay, whole-cell patch-clamp in CHO-hERG cells; assay type: cell-based; settings: for IC50: whole-cell patch-clamp, CHO-hERG cells
T1 construct: host or cells: CHO-hERG cells
T1 sequence (Q12809 whole entry): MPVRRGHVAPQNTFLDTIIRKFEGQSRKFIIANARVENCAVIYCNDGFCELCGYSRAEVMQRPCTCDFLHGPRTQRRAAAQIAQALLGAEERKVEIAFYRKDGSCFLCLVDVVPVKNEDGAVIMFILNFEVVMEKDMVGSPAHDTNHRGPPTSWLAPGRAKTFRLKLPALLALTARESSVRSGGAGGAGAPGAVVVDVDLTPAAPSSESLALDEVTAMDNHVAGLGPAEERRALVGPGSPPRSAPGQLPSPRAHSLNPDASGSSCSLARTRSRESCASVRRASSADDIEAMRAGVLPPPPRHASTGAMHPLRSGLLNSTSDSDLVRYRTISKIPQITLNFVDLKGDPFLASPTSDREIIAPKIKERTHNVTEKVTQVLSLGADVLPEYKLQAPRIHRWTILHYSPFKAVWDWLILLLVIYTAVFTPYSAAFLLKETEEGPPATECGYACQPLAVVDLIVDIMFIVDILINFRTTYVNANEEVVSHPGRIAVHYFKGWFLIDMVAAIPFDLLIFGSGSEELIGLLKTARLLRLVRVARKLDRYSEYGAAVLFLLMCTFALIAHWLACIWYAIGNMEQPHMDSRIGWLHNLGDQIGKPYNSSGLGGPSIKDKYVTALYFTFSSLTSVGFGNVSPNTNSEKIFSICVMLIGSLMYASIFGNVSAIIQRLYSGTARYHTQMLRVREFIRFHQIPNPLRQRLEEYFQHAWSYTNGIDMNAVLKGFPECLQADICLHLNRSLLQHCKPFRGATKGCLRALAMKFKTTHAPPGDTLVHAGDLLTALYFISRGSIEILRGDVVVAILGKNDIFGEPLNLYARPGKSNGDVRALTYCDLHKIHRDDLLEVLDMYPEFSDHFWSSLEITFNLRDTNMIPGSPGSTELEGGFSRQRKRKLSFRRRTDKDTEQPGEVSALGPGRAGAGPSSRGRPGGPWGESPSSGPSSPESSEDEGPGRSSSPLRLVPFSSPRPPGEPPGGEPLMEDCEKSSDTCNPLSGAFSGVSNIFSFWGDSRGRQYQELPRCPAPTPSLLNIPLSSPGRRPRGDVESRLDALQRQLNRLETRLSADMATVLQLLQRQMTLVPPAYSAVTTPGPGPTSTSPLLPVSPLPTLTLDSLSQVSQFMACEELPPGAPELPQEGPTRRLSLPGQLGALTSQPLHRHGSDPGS
Experimental: CHO-hERG cells (Sophion Biosciences (Ballerup, Denmark), subcultured and frozen in WuXi AppTec (Suzhou) Co., Ltd.), stored in liquid nitrogen, were tested and determined to be free from mycoplasma contamination. Cells were not used after the 30th passage. CHO-hERG cells were cultured in a humidified incubator of 5% CO2 (4% to 8%) in air at 37° C. (±2° C.). The cells were recovered with recovery medium (F12 medium with 10% fetal bovine serum), subcultured in complete medium (F12 medium, supplemented with 10% fetal bovine serum, 1% Geneticin® selective antibiotic (G418), 89 μg/mL Hygromycin B (HB)), and the culture medium was switched to recovery medium in the last subculture before patch-clamp experiment.
To determine the compounds' IC50, select compounds (“test articles”) were dissolved into DMSO, and then diluted with ECS to get working solutions. Five concentrations of 0.3, 1, 3, 10, and 30 μM were tested. Two replicate cells for each concentration were tested.
Exponentially growing CHO-hERG cells were collected and suspended in extracellular solution for use. The hERG current was recorded at physiological temperature (33.0° C. to 37.0° C.) using whole-cell patch-clamp techniques. Output signals from the patch-clamp amplifier were digitized and low-pass filtered at 2.9 KHz. The recording was controlled with Patchmaster Pro software. The recording chamber with seeded cells was mounted on an inverted microscope stage. A cell in the recording chamber was randomly selected for testing. The cell was continuously perfused from the perfusion system. A micropipette filled with ICS was used as recording electrode in the manual patch-clamp study. The micropipette was prepared on the day of the patch-clamp experiment using glass capillaries (BF150-117-10, SUTTER INSTRUMENT USA). The pipette resistance (Rp) was within 2 to 5 MΩ with ICS filled. From the holding potential of-80 mV, the voltage was increased to +60 mV for 850 ms to open the hERG channels. After that, the voltage was decreased to-50 mV for 1275 ms, causing a “rebound” or tail current, the peak tail current was measured and collected for data analysis. Finally, the voltage was decreased to the holding potential (−80 mV). This command voltage protocol was repeated every 15 s continuously during the test article application.
During the initial recording period with vehicle control working solution, the peak tail current amplitude was monitored until it had been stable for at least 3 sweeps. Cells were then perfused with test article/positive control working solutions until the peak tail current amplitude reached steady state. Steady state was considered reached when three consecutive super-imposable peak tail currents were collected. At this point, cells were once again perfused with next concentration of test article. One or more test articles/positive control or different concentrations of the same test article were tested on each cell with vehicle control washout until the current amplitude returned to values at least 80% of those measured before application of test article. […] At least 2 replicate cells for each concentration were tested. […] (Milnes, J. T., et al.)
Seal criteria: When acquiring whole-cell configuration, a holding potential (e.g.,-80 mV) was applied while membrane parameters were collected (Cm, Rm and Rs). A “good” whole-cell recording was generally defined as: series resistance (Rs) was less than 10 MΩ; membrane resistance (Rm) was more than 500 MΩ and membrane capacitance (Cm) was less than 100 pF. Current amplitude: The peak current amplitude must be between 400 pA and 5000 pA before the test article/positive control application; otherwise the cell was discarded. Leak criteria: At-80 mV holding potential, the absolute leak current value must be less than 200 pA. The amplitude of current was adjusted with leak current at-80 mV. The sweeps which absolute leak current value was more than 200 pA was not used in data analysis.

IL-6 = IL-6 AlphaLISA in LPS-primed THP1 macrophages; settings: for IC50: Homo sapiens
NLRP3 inflammasome = NLRP3 inflammasome (Homo sapiens, UniProt Q96P20); experiment: NLRP3 inflammasome activation in THP1 macrophages, IL-1β AlphaLISA; settings: for IC50: THP1 macrophages
Chain of NLRP3 inflammasome (Q96P20 whole entry): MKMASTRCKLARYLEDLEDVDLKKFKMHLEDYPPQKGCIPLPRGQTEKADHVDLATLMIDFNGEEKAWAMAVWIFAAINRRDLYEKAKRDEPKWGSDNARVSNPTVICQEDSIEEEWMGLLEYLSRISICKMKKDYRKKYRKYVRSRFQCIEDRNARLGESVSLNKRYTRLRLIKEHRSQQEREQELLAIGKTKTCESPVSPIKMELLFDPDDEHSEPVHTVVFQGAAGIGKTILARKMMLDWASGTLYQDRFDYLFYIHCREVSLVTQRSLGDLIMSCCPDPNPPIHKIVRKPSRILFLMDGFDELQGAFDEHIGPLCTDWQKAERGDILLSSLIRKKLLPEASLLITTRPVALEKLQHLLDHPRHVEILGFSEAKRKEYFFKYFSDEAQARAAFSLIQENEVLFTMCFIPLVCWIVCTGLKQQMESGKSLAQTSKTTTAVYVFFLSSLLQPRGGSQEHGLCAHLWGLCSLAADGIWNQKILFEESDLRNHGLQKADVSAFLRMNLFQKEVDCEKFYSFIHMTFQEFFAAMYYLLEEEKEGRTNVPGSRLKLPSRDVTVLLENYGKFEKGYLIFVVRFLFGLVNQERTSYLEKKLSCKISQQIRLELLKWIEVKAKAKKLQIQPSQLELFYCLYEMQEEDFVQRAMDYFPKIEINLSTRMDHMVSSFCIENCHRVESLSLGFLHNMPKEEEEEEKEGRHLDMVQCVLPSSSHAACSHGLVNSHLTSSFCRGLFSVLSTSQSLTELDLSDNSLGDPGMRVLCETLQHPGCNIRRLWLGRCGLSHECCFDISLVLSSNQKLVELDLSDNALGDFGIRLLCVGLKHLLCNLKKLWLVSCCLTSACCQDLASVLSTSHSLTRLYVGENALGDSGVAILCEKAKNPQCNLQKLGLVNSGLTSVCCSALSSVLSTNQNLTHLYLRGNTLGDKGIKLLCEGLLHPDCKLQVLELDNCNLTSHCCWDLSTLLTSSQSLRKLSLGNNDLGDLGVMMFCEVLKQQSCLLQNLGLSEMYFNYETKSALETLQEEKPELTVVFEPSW

[1] = THP-1, read-out: IL-6 Activity, LPS-primed THP1 macrophages, Table 11 comparison
[2] = IL-1β Activity, Table 11 comparison
[3] = THP-1, read-out: IL-6 Activity (μM), THP1 macrophages, PMA, LPS priming, nigericin 6.7 uM
[4] = IL-1β Activity (nM), PMA, LPS priming, nigericin 6.7 uM activation

Row | IC50 (IL-6; [1]) [µM] | IL-1ß activity (in words) (NLRP3 inflammasome) | IC50 (NLRP3 inflammasome; [2]) [nM] | IC50 (IL-6; [3]) [µM] | IC50 (NLRP3 inflammasome; [4]) [nM] | Compound | hERG inhibition (in words) (hERG channels) | IC50 (hERG channels; Table 11 comparison) [µM] | IC50 (hERG channels; 33.0-37.0 °C, Table 10) [µM] | IL-6 activity (in words) (IL-6)
1 | > 10 | potent | < 1 | – | – | Cc1ccc(-c2nnc(N[C@@H]3CCCN(C)C3)cc2C)c(O)c1 [C, reference compound] | high | 10 to 20 | – | –
2 | 5 to 10 | potent | 10 to 100 | 5 to 10 | 10 to 100 | Cc1cccc(O)c1-c1ccc(N(C)[C@@H]2CCCN(C)C2)nn1 [compound 21, (R)-3-methyl-2-(6-(methyl (1-methylpiperidin-3-yl)amino)pyridazin-3-yl) phenol] | unexpectedly low | > 30 | > 30 | potent
3 | – | – | – | 5 to 10 | < 1 | Cc1cc(N[C@@H]2CCCN(C)C2)nnc1-c1cccc(C)c1O [compound 67] | – | – | 10 to 20 | –
